Results: patent publication US9758505B2, “3-(indol-3-yl)-pyridine derivatives, pharmaceutical compositions and methods for use” (ITEOS THERAPEUTICS, priority 2014, dated 2017)
Structures can show the parent of a compound that is named as a salt.

Target: human TDO2 (Homo sapiens (Human), UniProt P48775)
Experiment: Cellular assay for TDO2 activity, A172 cells naturally expressing hTDO2
Format: cell-based
Conditions: human glioblastoma A172 cells, overnight incubation, kynurenine in supernatant
Experimental: A172 is a cell line derived from human brain glioblastoma cells.
To determine TDO, the cells were incubated overnight at 37° C. at 5% CO2 in IMDM (Invitrogen) supplemented with 2% FBS and 2% penicillin/streptomycin in the presence of the compounds of the present invention, at different concentrations.
The plates were then centrifuged 5 min at 1000 rpm, and 100 μL of the supernatant were collected in a conical plate, 30 uL of TCA 30% were added and a further centrifugated at 3000×g for 10 minutes. 100 μL of the supernatant were collected in a flat bottomed plate and 100 μL of 2% (w/v) 4-(dimethylamino)-benzaldehyde in acetic acid and incubated for 5 min at room temperature. Kynurenine concentrations were determined by measuring the absorbance at 480 nm. A standard curve was made with pure kynurenine. The TDO activity was measured as described above using ten serial concentrations of the compounds of the present invention. Data were fitted using the Prism™ software (GraphPad Software, Inc.) using standard software configurations.

human TDO2, sequence (P48775 whole entry): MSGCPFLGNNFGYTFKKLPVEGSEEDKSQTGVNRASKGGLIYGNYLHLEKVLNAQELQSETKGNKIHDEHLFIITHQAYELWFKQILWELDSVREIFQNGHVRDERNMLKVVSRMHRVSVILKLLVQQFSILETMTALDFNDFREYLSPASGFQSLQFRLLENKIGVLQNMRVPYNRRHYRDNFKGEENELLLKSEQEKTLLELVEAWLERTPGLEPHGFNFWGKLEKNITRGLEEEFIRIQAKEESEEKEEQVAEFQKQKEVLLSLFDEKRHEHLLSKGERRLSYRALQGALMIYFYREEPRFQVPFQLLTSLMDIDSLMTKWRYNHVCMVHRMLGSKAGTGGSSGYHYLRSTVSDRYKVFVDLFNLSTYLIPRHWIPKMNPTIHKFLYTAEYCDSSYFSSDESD

IC50 | Structure (SMILES)
1100 nM | N[C@@H](Cc1ccccc1)C(=O)Nc1ccc(-c2c[nH]c3cc(F)ccc23)cn1 [Example 36, (S)-2-amino-N-(5-(6-fluoro-1H-indol-3-yl)pyridin-2-yl)-3-phenylpropanamide]
740 nM | CC(C)[C@H](N)C(=O)Nc1ccc(-c2c[nH]c3cc(F)ccc23)cn1 [Example 38, (S)-2-amino-N-(5-(6-fluoro-1H-indol-3-yl)pyridin-2-yl)-3-methylbutanamide]
520 nM | CC(=O)N1CCC(C(=O)Nc2ccc(-c3c[nH]c4cc(F)ccc34)cn2)CC1 [Example 42, 1-acetyl-N-(5-(6-fluoro-1H-indol-3-yl)pyridin-2-yl)piperidine-4-carboxamide]
1400 nM | COCCS(=O)(=O)NC1CCN(c2ccc(-c3c[nH]c4cc(F)ccc34)cn2)CC1 [Example 57, N-(1-(5-(6-fluoro-1H-indol-3-yl)pyridin-2-yl)piperidin-4-yl)-2-methoxyethanesulfonamide]
810 nM | O=C(Nc1ccc(-c2c[nH]c3cc(F)ccc23)cn1)[C@@H]1CCCN1 [Example 58, (S)—N-(5-(6-fluoro-1H-indol-3-yl)pyridin-2-yl)pyrrolidine-2-carboxamide]
1400 nM | O=S(=O)(CCN1CCOCC1)NC1CCN(c2ccc(-c3c[nH]c4cc(F)ccc34)cn2)CC1 [Example 59, N-(1-(5-(6-fluoro-1H-indol-3-yl)pyridin-2-yl)piperidin-4-yl)-2-morpholinoethanesulfonamide]
700 nM | CS(=O)(=O)Nc1ccc(-c2c[nH]c3cc(F)ccc23)cn1 [Example 60, N-(5-(6-fluoro-1H-indol-3-yl)pyridin-2-yl)methanesulfonamide]
1300 nM | O=S(=O)(CCO)NC1CCN(c2ccc(-c3c[nH]c4cc(F)ccc34)cn2)CC1 [Example 62, N-(1-(5-(6-fluoro-1H-indol-3-yl)pyridin-2-yl)piperidin-4-yl)-2-hydroxyethanesulfonamide]
360 nM | NC(=O)Nc1ccc(-c2c[nH]c3cc(F)ccc23)cn1 [Example 63, 1-(5-(6-fluoro-1H-indol-3-yl)pyridin-2-yl)urea]
870 nM | CS(=O)(=O)NCCC(=O)Nc1ccc(-c2c[nH]c3cc(F)ccc23)cn1 [Example 64, N-(5-(6-fluoro-1H-indol-3-yl)pyridin-2-yl)-3-(methylsulfonamido)propanamide]
820 nM | CN(C)C(=O)Nc1ccc(-c2c[nH]c3cc(F)ccc23)cn1 [Example 65, 3-(5-(6-fluoro-1H-indol-3-yl)pyridin-2-yl)-1,1-dimethylurea]
440 nM | CNC(=O)Nc1ccc(-c2c[nH]c3cc(F)ccc23)cn1 [Example 66, 1-(5-(6-fluoro-1H-indol-3-yl)pyridin-2-yl)-3-methylurea]
460 nM | Nc1nc2ccc(-c3ccc(-c4c[nH]c5cc(F)ccc45)cn3)cc2[nH]1 [Example 67, 6-(5-(6-fluoro-1H-indol-3-yl)pyridin-2-yl)-1H-benzo[d]imidazol-2-amine]
480 nM | Cn1cc(-c2c[nH]c3cc(F)ccc23)ccc1=O [Example 68, 5-(6-fluoro-1H-indol-3-yl)-1-methylpyridin-2(1H)-one]
720 nM | CS(=O)(=O)NCCCC(=O)Nc1ccc(-c2c[nH]c3cc(F)ccc23)cn1 [Example 70, N-(5-(6-fluoro-1H-indol-3-yl)pyridin-2-yl)-4-(methylsulfonamido)butanamide]
1400 nM | O=c1[nH]c2ncc(-c3c[nH]c4cc(F)ccc34)cc2o1 [Example 71, 6-(6-fluoro-1H-indol-3-yl)oxazolo[4,5-b]pyridin-2(3H)-one]
4700 nM | CS(=O)(=O)NC1CCN(c2ccc(-c3c[nH]c4cc(Cl)ccc34)cn2)CC1 [Example 72, N-(1-(5-(6-chloro-1H-indol-3-yl)pyridin-2-yl)piperidin-4-yl)methanesulfonamide]
600 nM | O=c1[nH]c2cc(-c3c[nH]c4cc(F)ccc34)cnc2[nH]1 [Example 73, 6-(6-fluoro-1H-indol-3-yl)-1H-imidazo[4,5-b]pyridin-2(3H)-one]
400 nM | Cc1nc2ncc(-c3c[nH]c4cc(F)ccc34)cc2o1 [Example 74, 6-(6-fluoro-1H-indol-3-yl)-2-methyloxazolo[4,5-b]pyridine]
500 nM | Cc1nc2cc(-c3c[nH]c4cc(F)ccc34)cnc2o1 [Example 75, 6-(6-fluoro-1H-indol-3-yl)-2-methyloxazolo[5,4-b]pyridine]
4100 nM | O=C1Cc2ncc(-c3c[nH]c4cc(F)ccc34)cc2N1 [Example 76, 6-(6-fluoro-1H-indol-3-yl)-1H-pyrrolo[3,2-b]pyridin-2(3H)-one]
2800 nM | CS(=O)(=O)NC1CCN(c2ccc(-c3c[nH]c4ccc(Cl)cc34)cn2)CC1 [Example 77, N-(1-(5-(5-chloro-1H-indol-3-yl)pyridin-2-yl)piperidin-4-yl)methanesulfonamide]

IC50 | Structure (SMILES)
1200 nM | CS(=O)(=O)NC1CCN(c2ccc(-c3c[nH]c4ccccc34)cn2)CC1 [Example 79, N-(1-(5-(1H-indol-3-yl)pyridin-2-yl)piperidin-4-yl)methanesulfonamide]
310 nM | NS(=O)(=O)c1ccc(-c2c[nH]c3cc(F)ccc23)cn1 [Example 80, 5-(6-fluoro-1H-indol-3-yl)pyridine-2-sulfonamide hydrochloride]
2000 nM | CS(=O)(=O)NC1CCN(c2ccc(-c3c[nH]c4ccc(F)cc34)cn2)CC1 [Example 81, N-(1-(5-(5-fluoro-1H-indol-3-yl)pyridin-2-yl)piperidin-4-yl)methanesulfonamide]
590 nM | O=C1COCCN1c1ccc(-c2c[nH]c3cc(F)ccc23)cn1 [Example 82, 4-(5-(6-fluoro-1H-indol-3-yl)pyridin-2-yl)morpholin-3-one]
1500 nM | O=C1CNCCN1c1ccc(-c2c[nH]c3cc(F)ccc23)cn1 [Example 83, 1-(5-(6-fluoro-1H-indol-3-yl)pyridin-2-yl)piperazin-2-one]
2300 nM | O=C(O)Cn1c(=O)[nH]c2cc(-c3c[nH]c4cc(F)ccc34)cnc21 [Example 85, 2-(6-(6-fluoro-1H-indol-3-yl)-2-oxo-1H-imidazo[4,5-b]pyridin-3(2H)-yl)acetic acid]
610 nM | CCOC(=O)Cn1c(=O)[nH]c2cc(-c3c[nH]c4cc(F)ccc34)cnc21 [Example 86, ethyl 2-(6-(6-fluoro-1H-indol-3-yl)-2-oxo-1H-imidazo[4,5-b]pyridin-3(2H)-yl)acetate]
230 nM | O=S(=O)(c1ccc(-c2c[nH]c3cc(F)ccc23)cn1)N1CCNCC1 [Example 87, 6-fluoro-3-(6-(piperazin-1-ylsulfonyl)pyridin-3-yl)-1H-indole]
350 nM | CS(=O)(=O)NCCNS(=O)(=O)c1ccc(-c2c[nH]c3cc(F)ccc23)cn1 [Example 88, 5-(6-fluoro-1H-indol-3-yl)-N-(2-(methylsulfonamido)ethyl)pyridine-2-sulfonamide]
350 nM | CN(CCNS(=O)(=O)c1ccc(-c2c[nH]c3cc(F)ccc23)cn1)S(C)(=O)=O [Example 89, 5-(6-fluoro-1H-indol-3-yl)-N-(2-(N-methylmethylsulfonamido)ethyl)pyridine-2-sulfonamide]
1400 nM | CS(=O)(=O)N1CCN(S(=O)(=O)c2ccc(-c3c[nH]c4cc(F)ccc34)cn2)CC1 [Example 90, 6-fluoro-3-(6-((4-(methylsulfonyl)piperazin-1-yl)sulfonyl)pyridin-3-yl)-1H-indole]
270 nM | CN(CCNS(C)(=O)=O)S(=O)(=O)c1ccc(-c2c[nH]c3cc(F)ccc23)cn1 [Example 91, 5-(6-fluoro-1H-indol-3-yl)-N-methyl-N-(2-(methylsulfonamido)ethyl)pyridine-2-sulfonamide]
330 nM | CC(=O)NCCNS(=O)(=O)c1ccc(-c2c[nH]c3cc(F)ccc23)cn1 [Example 92, N-(2-(5-(6-fluoro-1H-indol-3-yl)pyridine-2-sulfonamido)ethyl)acetamide]
200 nM | O=S(=O)(c1ccc(-c2c[nH]c3ccccc23)cn1)N1CCNCC1 [Example 93, 3-(6-(piperazin-1-ylsulfonyl)pyridin-3-yl)-1H-indole]
240 nM | O=S(=O)(c1ccc(-c2c[nH]c3cc(F)c(F)cc23)cn1)N1CCNCC1 [Example 94, 5,6-difluoro-3-(6-(piperazin-1-ylsulfonyl)pyridin-3-yl)-1H-indole]
370 nM | O=S(=O)(c1ccc(-c2c[nH]c3ccc(F)cc23)cn1)N1CCNCC1 [Example 95, 5-fluoro-3-(6-(piperazin-1-ylsulfonyl)pyridin-3-yl)-1H-indole]
530 nM | Cc1ccc2[nH]cc(-c3ccc(S(=O)(=O)N4CCNCC4)nc3)c2c1 [Example 96, 5-methyl-3-(6-(piperazin-1-ylsulfonyl)pyridin-3-yl)-1H-indole]
2400 nM | N#Cc1ccc2[nH]cc(-c3ccc(S(=O)(=O)N4CCNCC4)nc3)c2c1 [Example 97, 3-(6-(piperazin-1-ylsulfonyl)pyridin-3-yl)-1H-indole-5-carbonitrile]
1400 nM | Cc1ccc2c(-c3ccc(S(=O)(=O)N4CCNCC4)nc3)c[nH]c2c1 [Example 98, 6-methyl-3-(6-(piperazin-1-ylsulfonyl)pyridin-3-yl)-1H-indole]
370 nM | NC(=O)CCNS(=O)(=O)c1ccc(-c2c[nH]c3cc(F)ccc23)cn1 [Example 99, 3-(5-(6-fluoro-1H-indol-3-yl)pyridine-2-sulfonamido)propanamide]
620 nM | Fc1ccc2c(-c3ccc(NC4CCOCC4)nc3)c[nH]c2c1 [Example 100, 5-(6-fluoro-1H-indol-3-yl)-N-(tetrahydro-2H-pyran-4-yl)pyridin-2-amine]
